Reference: PubChem BioAssay (NCI)
Several values for one entry are separate records, joined by “and”; a condition that tells them apart may be missing. Equal values may be shown once.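 All cell lines were grown in 96-well plates and treated with compound for 48 hours. GI50 = concentration required for 50% inhibition of growth. The concentration for full growth arrest is given as TGI.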

system: OVCAR-5 ovarian; assay: DTP human tumour cell line panel, 48 h

| SMILES | GI50 | TGI |
| --- | --- | --- |
| CN1CCc2c(Sc3ccc(C(=O)NO)cc3)c3ccccc3n2C1 | 2.6 µM | 10.7 µM |
| COc1ccc(CNc2c3ccccc3nc3ccccc23)cc1OC | 2.56 µM | 11 µM |
| CN(C)c1ccc2nc3ccc(=O)cc-3sc2c1 | 4.68 µM | > 70.2 µM |
| O=C(Nc1ccc(Cl)cc1F)c1cc(Br)ccc1O | 3.71 µM | > 100 µM |
| COc1ccc(-n2cc(-c3ccc(Cl)c(Cl)c3)nc2SCc2cccc(C#N)c2)cc1 | 94.1 µM | > 100 µM |
| Fc1ccc(Nc2cc(-n3nnc4ccccc43)nc3ccccc23)cc1 | > 100 µM | > 100 µM |
| NC(=O)C(=CNc1nc(-c2ccc(Cl)c(Cl)c2)cs1)C(N)=O | > 100 µM | > 100 µM |
| NC(N)=N/N=C/c1cc(Cl)cc(Cl)c1O | – | > 100 µM |
| O=C(Nc1cccc(Cl)c1)c1cc2ccccc2cc1O | 6.59 µM and 1.98 µM | > 100 µM |
| CC(C)c1ccccc1S(=O)c1ccccc1C(C)(C)O (stereo unspecified) | – | > 100 µM |
| O=C(N/N=C\c1cc(Br)ccc1O)c1ccncc1 | 3.76 µM | > 100 µM |
| COc1ccccc1/C=C/c1cnccn1 | – | > 10 µM |
| O=C(O)c1cccc(OCCO)c1 | – | > 100 µM |
| COc1ccc(C2C(C#N)=C(N)OC3=C2COc2ccc(F)cc23)cc1OC (stereo unspecified) | 23.7 µM | 80.9 µM |
| CCOC(=O)C1=C(C)N(N)C(=S)NC1c1ccc(C)cc1 (stereo unspecified) | 15.7 µM | > 100 µM |
| N#CC(C(=O)/C(=N/Nc1nc(=S)[nH]n1N)C(C#N)c1ccccc1)c1ccccc1 (stereo unspecified) | – | > 100 µM |
| CCCS(=O)(=O)Nc1ccc(Nc2c3ccccc3nc3ccccc23)c(OC)c1 | – | 23.6 µM |
| Cc1cc(NC(=O)c2ccc(C)c(Nc3nccc(-c4cccnc4)n3)c2)cc(-n2cnc(C)c2)c1 | 3.54 µM | 10.5 µM |
| O=C(O)c1ccccc1-c1ccccc1C(=O)Nc1ccc2c(c1)Cc1cc(F)ccc1-2 | – | 88.1 µM |
| CN(C)Cc1c[nH]c2c1C(=O)c1c(c(O)c3ccccc3c1O)C2=O | 14.3 µM | 27.3 µM |

system: RXF 393 renal; assay: DTP human tumour cell line panel, 48 h

| SMILES | GI50 | TGI |
| --- | --- | --- |
| CN1CCc2c(Sc3ccc(C(=O)NO)cc3)c3ccccc3n2C1 | 2370 nM | 9.51 µM |
| COc1ccc(CNc2c3ccccc3nc3ccccc23)cc1OC | 1490 nM | 3.64 µM |
| CN(C)c1ccc2nc3ccc(=O)cc-3sc2c1 | 2920 nM | 36.9 µM |
| O=C(Nc1ccc(Cl)cc1F)c1cc(Br)ccc1O | 799 nM | 3.75 µM |
| COc1ccc(-n2cc(-c3ccc(Cl)c(Cl)c3)nc2SCc2cccc(C#N)c2)cc1 | 13600 nM | 41 µM |
| Fc1ccc(Nc2cc(-n3nnc4ccccc43)nc3ccccc23)cc1 | 781 nM | 27.6 µM |
| NC(=O)C(=CNc1nc(-c2ccc(Cl)c(Cl)c2)cs1)C(N)=O | > 100000 nM | > 100 µM |
| NC(N)=N/N=C/c1cc(Cl)cc(Cl)c1O | – | > 100 µM |
| O=C(Nc1cccc(Cl)c1)c1cc2ccccc2cc1O | 2740 nM and 2930 nM | > 100 µM and 14.5 µM |
| CC(C)c1ccccc1S(=O)c1ccccc1C(C)(C)O (stereo unspecified) | – | > 100 µM |
| O=C(N/N=C\c1cc(Br)ccc1O)c1ccncc1 | 1890 nM | > 100 µM |
| COc1ccccc1/C=C/c1cnccn1 | – | > 10 µM |
| O=C(O)c1cccc(OCCO)c1 | – | > 100 µM |
| COc1ccc(C2C(C#N)=C(N)OC3=C2COc2ccc(F)cc23)cc1OC (stereo unspecified) | 69300 nM | > 100 µM |
| CCOC(=O)C1=C(C)N(N)C(=S)NC1c1ccc(C)cc1 (stereo unspecified) | 6440 nM | > 100 µM |
| N#CC(C(=O)/C(=N/Nc1nc(=S)[nH]n1N)C(C#N)c1ccccc1)c1ccccc1 (stereo unspecified) | – | > 100 µM |
| CCCS(=O)(=O)Nc1ccc(Nc2c3ccccc3nc3ccccc23)c(OC)c1 | – | 14.9 µM |
| Cc1cc(NC(=O)c2ccc(C)c(Nc3nccc(-c4cccnc4)n3)c2)cc(-n2cnc(C)c2)c1 | 1560 nM | 4.88 µM |
| O=C(O)c1ccccc1-c1ccccc1C(=O)Nc1ccc2c(c1)Cc1cc(F)ccc1-2 | – | > 100 µM |
| CN(C)Cc1c[nH]c2c1C(=O)c1c(c(O)c3ccccc3c1O)C2=O | 9480 nM | 25.5 µM |

system: MDA-MB-435; assay: DTP human tumour cell line panel, 48 h

| SMILES | GI50 | TGI |
| --- | --- | --- |
| CN1CCc2c(Sc3ccc(C(=O)NO)cc3)c3ccccc3n2C1 | 1610 nM | 3.34 µM |
| COc1ccc(CNc2c3ccccc3nc3ccccc23)cc1OC | 2930 nM | 10 µM |
| CN(C)c1ccc2nc3ccc(=O)cc-3sc2c1 | 310 nM | 0.985 µM |
| O=C(Nc1ccc(Cl)cc1F)c1cc(Br)ccc1O | 941 nM | 8.44 µM |
| COc1ccc(-n2cc(-c3ccc(Cl)c(Cl)c3)nc2SCc2cccc(C#N)c2)cc1 | 12500 nM | > 100 µM |
| Fc1ccc(Nc2cc(-n3nnc4ccccc43)nc3ccccc23)cc1 | > 50700 nM | > 100 µM |
| NC(=O)C(=CNc1nc(-c2ccc(Cl)c(Cl)c2)cs1)C(N)=O | 48200 nM | > 100 µM |
| NC(N)=N/N=C/c1cc(Cl)cc(Cl)c1O | – | > 100 µM |
